Assay results reported in PubChem BioAssay AID248 (DTP/NCI, 2004).
Where “and” joins values, the source holds several entries; their conditions need not be identical. Identical values can stand only once. Toxic doses and inconclusive results are not listed. Cut-off read from the data, not from the text of the source: active = T/C of 150% or more; inactive = T/C below 125%.

System: L1210 leukemia ip in BDF1 mice, survival T/C
Assay: NCI In Vivo Anticancer Drug Screen. Data for tumor model L1210 Leukemia (intraperitoneal) in B6D2F1 (BDF1) mice
Conditions: endpoint: mean survival time, higher = longer survival
Method in brief: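 Mice bearing the transplanted tumor received compound or vehicle. Survival of the treated group was divided by that of the vehicle-treated control group to give the ratio.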

[1] = dose: 100.0 mg/kg/injection, schedule: Q01DX009 (ip), vehicle: saline with Tween-80
[2] = dose: 200.0 mg/kg/injection, schedule: Q01DX009 (ip), vehicle: saline with Tween-80
[3] = dose: 100.0 mg/kg/injection, schedule: Q01DX001 (ip), vehicle: saline
[4] = dose: 100.0 mg/kg/injection, schedule: Q04DX003 (ip), vehicle: saline
[5] = dose: 100.0 mg/kg/injection, schedule: Q01DX009 (ip), vehicle: Klucel (hydroxypropylcellulose) (HPC)
[6] = dose: 100.0 mg/kg/injection, schedule: Q04DX003 (ip), vehicle: Klucel (hydroxypropylcellulose) (HPC)
[7] = dose: 200.0 mg/kg/injection, schedule: Q01DX009 (ip), vehicle: Klucel (hydroxypropylcellulose) (HPC)
[8] = dose: 200.0 mg/kg/injection, schedule: Q04DX003 (ip), vehicle: Klucel (hydroxypropylcellulose) (HPC)
[9] = dose: 400.0 mg/kg/injection, schedule: Q01DX009 (ip), vehicle: Klucel (hydroxypropylcellulose) (HPC)
[10] = dose: 400.0 mg/kg/injection, schedule: Q04DX003 (ip), vehicle: Klucel (hydroxypropylcellulose) (HPC)
[11] = dose: 100.0 mg/kg/injection, schedule: Q01DX009 (ip), vehicle: saline
[12] = dose: 200.0 mg/kg/injection, schedule: Q01DX009 (ip), vehicle: saline
[13] = dose: 400.0 mg/kg/injection, schedule: Q01DX009 (ip), vehicle: saline
[14] = dose: 100.0 mg/kg/injection, schedule: Q04DX003 (ip), vehicle: saline with Tween-80
[15] = dose: 200.0 mg/kg/injection, schedule: Q01DX001 (ip), vehicle: saline
[16] = dose: 200.0 mg/kg/injection, schedule: Q04DX003 (ip), vehicle: saline with Tween-80
[17] = dose: 400.0 mg/kg/injection, schedule: Q01DX001 (ip), vehicle: saline
[18] = dose: 400.0 mg/kg/injection, schedule: Q04DX003 (ip), vehicle: saline with Tween-80
[19] = dose: 100.0 mg/kg/injection, schedule: Q04DX002 (ip), vehicle: saline
[20] = dose: 200.0 mg/kg/injection, schedule: Q04DX002 (ip), vehicle: saline
[21] = dose: 400.0 mg/kg/injection, schedule: Q04DX002 (ip), vehicle: saline

Measured: T/C

CC1(C)SC(C(NC(=O)COc2ccccc2)C(=O)O)NC1C(=O)O (configuration not stated)
inactive: dose: 50.0 mg/kg/injection, schedule: Q01DX009 (ip), vehicle: saline with Tween-80 101 % of control | [1] 95 % of control | [2] 88 % of control

C=NC
inactive: [3] 105 % of control | [4] 103 % of control

COc1ccc(CCN=Cc2ccc(Cl)cc2)cc1OC
inactive: [5] 104 % of control | [6] 93 % of control | [7] 95 % of control | [8] 96 % of control | [9] 95 % of control | [10] 103 % of control

Cc1ccccc1OCC(O)CO (configuration not stated)
inactive: dose: 25.0 mg/kg/injection, schedule: Q01DX009 (ip), vehicle: saline 95 % of control | dose: 25.0 mg/kg/injection, schedule: Q04DX003 (ip), vehicle: saline 101 % of control | dose: 50.0 mg/kg/injection, schedule: Q01DX009 (ip), vehicle: saline 93 % of control | dose: 50.0 mg/kg/injection, schedule: Q04DX003 (ip), vehicle: saline 95 % of control | [11] 102 % of control | [4] 95 % of control | [12] 102 % of control | dose: 200.0 mg/kg/injection, schedule: Q04DX003 (ip), vehicle: saline 111 % of control | [13] 98 % of control | dose: 400.0 mg/kg/injection, schedule: Q04DX003 (ip), vehicle: saline 123 % of control

c1csc(Cc2cccs2)c1
inactive: dose: 50.0 mg/kg/injection, schedule: Q01DX009 (ip), vehicle: other 112 % of control | dose: 100.0 mg/kg/injection, schedule: Q01DX009 (ip), vehicle: other 112 % of control | dose: 200.0 mg/kg/injection, schedule: Q01DX009 (ip), vehicle: other 116 % of control

O=S(=O)(c1ccc(Nc2nc(Cl)nc(Cl)n2)cc1)N(CCCl)CCCl
inactive: [5] 103 % of control | [7] 104 % of control | [9] 107 % of control

O=C(c1ccc(Cl)cc1)C(O)c1ccc(Cl)cc1 (configuration not stated)
inactive: dose: 50.0 mg/kg/injection, schedule: Q01DX001 (ip), vehicle: saline 96 % of control | [3] 90 % of control | [14] 90 % of control | [15] 96 % of control | [16] 92 % of control | [17] 100 % of control | [18] 86 % of control

OC1CCSc2ccc3ccccc3c21 (configuration not stated)
inactive: [11] 114 % of control | [12] 104 % of control | [13] 104 % of control

CC1(C)N=C(N)N=C(N)N1c1ccc(CC(C(=O)Nc2ccc(S(=O)(=O)F)cc2)c2ccccc2)cc1 (configuration not stated)
inactive: dose: 75.0 mg/kg/injection, schedule: Q01DX001 (ip), vehicle: Klucel (hydroxypropylcellulose) (HPC) 97 % of control | dose: 150.0 mg/kg/injection, schedule: Q01DX001 (ip), vehicle: Klucel (hydroxypropylcellulose) (HPC) 94 % of control | dose: 300.0 mg/kg/injection, schedule: Q01DX001 (ip), vehicle: Klucel (hydroxypropylcellulose) (HPC) 90 % of control

Cc1cccc(C)c1NC(=O)Oc1ccc(F)cc1Cl
inactive: [5] 110 % of control | [7] 97 % of control

CC(=O)CCC1CC(=O)OC1(C)C (configuration not stated)
inactive: [3] 102 % of control and 100 % of control | [11] 104 % of control and 88 % of control | dose: 100.0 mg/kg/injection, schedule: Q04DX003 (ip), vehicle: acetone 93 % of control | [15] 102 % of control and 100 % of control | [12] 96 % of control and 88 % of control | dose: 200.0 mg/kg/injection, schedule: Q04DX003 (ip), vehicle: acetone 117 % of control | [17] 96 % of control and 106 % of control | [13] 98 % of control and 86 % of control | dose: 400.0 mg/kg/injection, schedule: Q04DX003 (ip), vehicle: acetone 101 % of control

CCCCCC(CN(C)C)C(O)/C=C\c1ccccc1 (configuration not stated)
inactive: dose: 12.5 mg/kg/injection, schedule: Q01DX009 (sc), vehicle: steriod suspending solution 97 % of control | dose: 12.5 mg/kg/injection, schedule: Q04DX003 (ip), vehicle: other 119 % of control | dose: 25.0 mg/kg/injection, schedule: Q01DX009 (sc), vehicle: steriod suspending solution 98 % of control | dose: 25.0 mg/kg/injection, schedule: Q04DX003 (ip), vehicle: other 106 % of control | dose: 50.0 mg/kg/injection, schedule: Q01DX009 (sc), vehicle: steriod suspending solution 97 % of control | dose: 50.0 mg/kg/injection, schedule: Q04DX003 (ip), vehicle: other 103 % of control

COCCNC(=O)N(CCOC)N=O
inactive: dose: 9.0 mg/kg/injection, schedule: Q01DX001 (ip), vehicle: saline 101 % of control | dose: 13.0 mg/kg/injection, schedule: Q01DX001 (ip), vehicle: saline 96 % of control | dose: 26.0 mg/kg/injection, schedule: Q01DX001 (ip), vehicle: saline 102 % of control | dose: 40.0 mg/kg/injection, schedule: Q01DX001 (ip), vehicle: saline 104 % of control | dose: 60.0 mg/kg/injection, schedule: Q01DX001 (ip), vehicle: saline 102 % of control | dose: 93.0 mg/kg/injection, schedule: Q01DX001 (ip), vehicle: saline 95 % of control | dose: 187.0 mg/kg/injection, schedule: Q01DX001 (ip), vehicle: saline 112 % of control | dose: 250.0 mg/kg/injection, schedule: Q01DX001 (ip), vehicle: saline 113 % of control | dose: 500.0 mg/kg/injection, schedule: Q01DX001 (ip), vehicle: saline 112 % of control

Nc1[nH][nH]c(=O)c1N=O
inactive: dose: 50.0 mg/kg/injection, schedule: Q01DX009 (ip), vehicle: Klucel (hydroxypropylcellulose) (HPC) 95 % of control | [5] 111 % of control | [19] 103 % of control | [7] 88 % of control | [20] 111 % of control | [21] 92 % of control

NC1(C(=O)O)Cc2ccccc2B(O)OC1=O (configuration not stated)
inactive: [6] 98 % of control | [8] 96 % of control | [10] 106 % of control

CCCCCCCCCCCCC1c2ccccc2-c2ccccc21
inactive: [3] 95 % of control | [15] 98 % of control | [17] 107 % of control

C/C=C/C=C\COC(=O)c1ccccc1OCC
inactive: [19] 98 % of control and 107 % of control | [20] 101 % of control and 109 % of control | [21] 109 % of control | dose: 800.0 mg/kg/injection, schedule: Q04DX002 (ip), vehicle: saline 106 % of control

CCOC(=O)CCC(C)(C#N)c1ccccc1 (configuration not stated)
inactive: [1] 104 % of control | [14] 108 % of control | [2] 98 % of control | [16] 99 % of control | dose: 400.0 mg/kg/injection, schedule: Q01DX009 (ip), vehicle: saline with Tween-80 97 % of control | [18] 106 % of control

CC(=O)Nc1ccc(Cc2ccccc2)cc1[N+](=O)[O-]
inactive: dose: 100.0 mg/kg/injection, schedule: Q01DX001 (ip), vehicle: carboxymethylcellulose (CMC) 106 % of control | dose: 200.0 mg/kg/injection, schedule: Q01DX001 (ip), vehicle: carboxymethylcellulose (CMC) 98 % of control | dose: 400.0 mg/kg/injection, schedule: Q01DX001 (ip), vehicle: carboxymethylcellulose (CMC) 97 % of control

COc1cc2c(c3c1CCC(C)(C)O3)Cc1c(cc(OC)c(OC)c1CCC(C)(C)O)O2
inactive: dose: 100.0 mg/kg/injection, schedule: Q01DX001 (ip), vehicle: Klucel (hydroxypropylcellulose) (HPC) 103 % of control | dose: 200.0 mg/kg/injection, schedule: Q01DX001 (ip), vehicle: Klucel (hydroxypropylcellulose) (HPC) 96 % of control | dose: 400.0 mg/kg/injection, schedule: Q01DX001 (ip), vehicle: Klucel (hydroxypropylcellulose) (HPC) 92 % of control

CC(=O)[O][Hg][c]1cc2c(cc1O)Cc1cc([N+](=O)[O-])ccc1-2
inactive: dose: 12.5 mg/kg/injection, schedule: Q01DX001 (ip), vehicle: carboxymethylcellulose (CMC) 105 % of control | dose: 25.0 mg/kg/injection, schedule: Q01DX001 (ip), vehicle: carboxymethylcellulose (CMC) 100 % of control | dose: 50.0 mg/kg/injection, schedule: Q01DX001 (ip), vehicle: carboxymethylcellulose (CMC) 97 % of control
